This is an account of results in patent US12454551B2, “Peptides as inhibitors of fibrotic matrix accumulation” (Max-Planck-Gesellschaft zur Förderung der Wissenschaften …, priority 2019, dated 2025).

The subject of test [1] is CCl4 induced liver fibrosis in mice. The test is described as follows: CCl4 induced liver fibrosis in mice (collagen accumulation in the liver). Type of test: in vivo. Conditions: for collagen accumulation in the liver (marker of matrix accumulation): mice, CCl4 for 6 weeks, peptide 25 mg/kg/mouse/day intraperitoneal in NaCl 0.9% from day 32 for 10 days, vs CCl4-treated mice, FIG. 1 and 2. As for the experimental part:
FIG. 1 Prevention of fibrosis progression by proline-containing cyclic and amidated linear peptides. Mice were injected for 6 weeks with CCl4 in order to induce liver fibrosis. Starting on day 32 the mice received daily intraperitoneal injections of 25 mg/kg/mouse/day of the peptides in 0.9% NaCl for a total of 10 days. CCl4-treated mice also received NaCl 0.9%. The healthy control group (CT) only received 0.9% NaCl. N=4/10/[…]/8/11/7 in two experiments. The following peptides were tested on CCl4-treated mice: cyclic Pro-Gly-Leu-Gln-Gly-Glu (Cyclic PGLQGE; SEQ ID NO: 6), and compared to two controls: cyclic Pro-Gly-Leu-Asn-Gly-Glu (Cyclic CT1+P: cyclic PGLNGE; SEQ ID NO: 11) and cyclic Pro-Gly-Leu-Hyp-Gly-Glu (Cyclic CT2+P: cyclic PGLOGE; SEQ ID NO: 16). Linear Gly-Leu-Gln-Gly-Glu-NH2 (Linear GLQGE-NH2; SEQ ID NO: 4) was also tested and compared to two controls: linear Gly-Leu-Asn-Gly-Glu-NH2 (Linear CT1—NH2: linear GLNGE-NH2; SEQ ID NO: 9) and linear Gly-Leu-Hyp-Gly-Glu-NH2 (Linear CT2—NH2: linear GLOGE-NH2; SEQ ID NO: 14). * p<0.05. Evaluated by t-test. Data presented as mean+SEM.
FIG. 2 Prevention of fibrosis progression by cyclic peptides and acetylated linear peptides. Mice were injected for 6 weeks with CCl4 in order to induce liver fibrosis. Starting on day 32 the mice received daily intraperitoneal injections of 25 mg/kg/mouse/day of the peptides in 0.9% NaCl for a total of 10 days. CCl4-treated mice also received NaCl 0.9%. The healthy control group (CT) only received 0.9% NaCl. N=5/18/9/9/6/5/4/4 in two experiments. The following peptides were tested on CCl4-treated mice: cyclic Gly-Leu-Gln-Gly-Glu (Cyclic GLQGE; SEQ ID NO: 5), and compared to two controls: cyclic Gly-Leu-Asn-Gly-Glu (Cyclic CT1: cyclic GLNGE; SEQ ID NO: 10) and cyclic Gly-Leu-Hyp-Gly-Glu (Cyclic CT2: cyclic GLOGE; SEQ ID NO: 15). Linear Ac-Gly-Leu-Gln-Gly-Glu (Linear Ac-GLQGE; SEQ ID NO: 3) was also tested and compared to two controls: linear Ac-Gly-Leu-Asn-Gly-Glu (Linear Ac-CT1: linear Ac-GLNGE; SEQ ID NO: 8) and linear Ac-Gly-Leu-Hyp-Gly-Glu (Linear Ac-CT2: linear Ac-GLOGE; SEQ ID NO: 13). * p<0.05, ** p<0.005. Evaluated by t-test. Data presented as mean+SEM.
Mice were injected for 6 weeks with CCl4 in order to induce liver fibrosis. Starting on day 32 the mice received daily intraperitoneal injections of the peptides at a final dose of 25 mg/kg/mouse/day diluted in NaCl 0.9% for a total of 10 days. In these experiments, the following peptides were tested: cyclic peptide Pro-Gly-Leu-Gln-Gly-Glu (SEQ ID NO: 6), cyclic peptide Pro-Gly-Leu-Asn-Gly-Glu (SEQ ID NO: 11), cyclic peptide Pro-Gly-Leu-Hyp-Gly-Glu (SEQ ID NO: 16), linear peptide Gly-Leu-Gln-Gly-Glu-NH2 (SEQ ID NO: 4), linear peptide Gly-Leu-Asn-Gly-Glu-NH2 (SEQ ID NO: 9), linear peptide Gly-Leu-Hyp-Gly-Glu-NH2 (SEQ ID NO: 14).
Mice were injected for 6 weeks with CCl4 in order to induce liver fibrosis. Starting on day 32 the mice received daily intraperitoneal injections of the peptides at a final dose of 25 mg/kg/mouse/day diluted in NaCl 0.9% for a total of 10 days. In these experiments, the following peptides were tested: cyclic peptide Gly-Leu-Gln-Gly-Glu (SEQ ID NO: 5), cyclic peptide Gly-Leu-Asn-Gly-Glu (SEQ ID NO: 10), cyclic peptide Gly-Leu-Hyp-Gly-Glu (SEQ ID NO: 15), linear peptide Ac-Gly-Leu-Gln-Gly-Glu (SEQ ID NO: 3), linear peptide Ac-Gly-Leu-Asn-Gly-Glu (SEQ ID NO: 8), linear peptide Ac-Gly-Leu-Hyp-Gly-Glu (SEQ ID NO: 13).

In test [2] the test system is TGFβ expression in murine hepatocytes. The test is described as follows: unstimulated TGFβ expression in murine hepatocytes. Type of test: cell-based. Conditions: data not shown.
The subject of test [3] is bleomycin induced lung fibrosis in C57bl/6 mice. The test is described as follows: bleomycin induced lung fibrosis in mice (total collagen in the lung). Conditions: intratracheal bleomycin on day 0; 1 mg/mouse/day s.c. from day 11 for 10 days; vs bleomycin alone (p<0.05) or with control peptides. It is filed as in vivo. As for the experimental part:
FIG. 4 Prevention of fibrosis progression by the cyclic peptide Gly-Leu-Gln-Gly-Glu (SEQ ID NO: 5) (acetate salt). Lung fibrosis was induced in 6-week-old male C57bl/6 mice using intratracheal bleomycin instillation at a dose of 0.005 units in 50 μl on day 0. Starting on day 11, cyclic Gly-Leu-Gln-Gly-Glu (cyclic GLQGE; SEQ ID NO: 5) was injected subcutaneously at a dose of 1 mg/mouse/day in 0.9% NaCl for a total of 10 days. The control group only received daily injections of 0.9% NaCl. The number of animals in the four groups was N=14/10/10/9 in three experiments. The cyclic peptide Gly-Leu-Gln-Gly-Glu (Cyclic GLQGE; SEQ ID NO: 5) (acetate salt) was tested and compared to cyclic Ac-Gly-Leu-Asn-Gly-Glu (Cyclic GLNGE; SEQ ID NO: 10) (acetate salt) and to cyclic Ac-Gly-Leu-Hyp-Gly-Glu (Cyclic GLOGE; SEQ ID NO: 15) (acetate salt), *p<0.05. Evaluated by t-test. Data are presented as mean ±SEM.
The cyclic peptide Gly-Leu-Gln-Gly-Glu (cyclic GLQGE (SEQ ID NO: 5) acetate salt) was tested for its ability in prevention of lung fibrosis in mice. Lung fibrosis was induced in 6-week-old male C57bl/6 mice using intratracheal bleomycin instillation at a dose of 0.005 units in 50 μl 0.9% NaCl on day 0. […]

Where a name gives a salt, the structure may show the parent alone. Residues, ends and D or L forms follow the SMILES beside them. No end group written: not given here.

PGLQGE [SEQ ID NO: 6]: the “collagen accumulation in the liver (marker of matrix accumulation)” value (“collagen accumulation in the liver” below) in test [1] is on record as “able to significantly reduce collagen accumulation”.
With “GLQGE-NH2 [SEQ ID NO: 4, Gly-Leu-Gln-Gly-Glu-NH2]”, in test [2], the “unstimulated TGFβ expression” value is on record as “efficiently inhibits”. Besides, in test [1], the “collagen accumulation in the liver” value is recorded as “able to significantly reduce CCl4-induced collagen accumulation”.
Regarding `CC(C)C[C@@H]1NC(=O)CNC(=O)[C@H](CCC(=O)O)NC(=O)CNC(=O)[C@H](CCC(N)=O)NC1=O` [SEQ ID NO: 5 (acetate salt), Gly-Leu-Gln-Gly-Glu] (HELM PEPTIDE1{E.G.L.Q.G}$PEPTIDE1,PEPTIDE1,1:R1-5:R2$$$V2.0), the “total amount of collagen in the lung” value in test [3] was “significantly diminished”.
For the compound “Ac-GLQGE [SEQ ID NO: 3, Ac-Gly-Leu-Gln-Gly-Glu]”, in test [1], the “collagen accumulation in the liver” value is on record as “able to significantly reduce CCl4-induced collagen accumulation”.
For “GLNGE-NH2 [SEQ ID NO: 9, Gly-Leu-Asn-Gly-Glu-NH2]”, in test [2], the “unstimulated TGFβ expression” value was “had no effect”.
The same measure, in the same setting: to `CC(C)C[C@H](NC(=O)CN)C(=O)N1C[C@@H](O)C[C@H]1C(=O)NCC(=O)N[C@@H](CCC(=O)O)C(N)=O` [SEQ ID NO: 14, Gly-Leu-Hyp-Gly-Glu-NH2] belongs “had no effect”.
For “Gly-Leu-Gln-Gly-Glu (GLQGE; SITE 1..5 peptide bond between the amino-terminus and the carboxyl-terminus; listed as Homo sapiens) [SEQ ID NO: 5]”, the “efficiency in reducing collagen accumulation in comparison to the cyclic peptide with proline Pro-Gly-Leu-Gln-Gly-Glu (SEQ ID NO: 6)” value in test [1] (CCl4 liver fibrosis in mice, comparison of Y-axis values of FIGS. 1 and 2, p<0.001) is recorded as “more efficient in reducing collagen accumulation”. In addition, the “inhibitory effect on collagen accumulation compared to linear Gly-Leu-Gln-Gly-Glu-NH2 (SEQ ID NO: 4) or Ac-Gly-Leu-Gln-Gly-Glu (SEQ ID NO: 3)” value in test [1] (chemically induced chronic liver damage in mice) is on record as “larger inhibitory effect”. For the same compound, the “collagen accumulation in the liver” value in test [1] is listed as “able to significantly reduce collagen accumulation”.
On to `CC(C)C[C@@H]1NC(=O)CNC(=O)[C@H](CCC(=O)O)NC(=O)CNC(=O)[C@@H]2C[C@@H](O)CN2C1=O` [SEQ ID NO: 15, Gly-Leu-Hyp-Gly-Glu, reference compound] (HELM PEPTIDE1{E.G.L.[Hyp].G}$PEPTIDE1,PEPTIDE1,1:R1-5:R2$$$V2.0), for which the “collagen accumulation in the liver” value in test [1] is recorded as “failed to inhibit collagen accumulation”.
Turning to `CC(C)C[C@@H]1NC(=O)CNC(=O)[C@H](CCC(=O)O)NC(=O)CNC(=O)[C@H](CC(N)=O)NC1=O` [SEQ ID NO: 10, Gly-Leu-Asn-Gly-Glu, reference compound] (HELM PEPTIDE1{E.G.L.N.G}$PEPTIDE1,PEPTIDE1,1:R1-5:R2$$$V2.0), the “collagen accumulation in the liver” value in test [1] is “failed to inhibit collagen accumulation”.
